Assays:
[1] = target: colony stimulating factor 1 receptor (CSF1R) (Homo sapiens, UniProt P07333); experiment: panel of 189 kinase assays; type: biochemical
EPHA8 = target: T1, EPHA8 (Homo sapiens, UniProt P29322); experiment: panel of 189 kinase assays; type: biochemical
T1 sequence (P29322 28-1005): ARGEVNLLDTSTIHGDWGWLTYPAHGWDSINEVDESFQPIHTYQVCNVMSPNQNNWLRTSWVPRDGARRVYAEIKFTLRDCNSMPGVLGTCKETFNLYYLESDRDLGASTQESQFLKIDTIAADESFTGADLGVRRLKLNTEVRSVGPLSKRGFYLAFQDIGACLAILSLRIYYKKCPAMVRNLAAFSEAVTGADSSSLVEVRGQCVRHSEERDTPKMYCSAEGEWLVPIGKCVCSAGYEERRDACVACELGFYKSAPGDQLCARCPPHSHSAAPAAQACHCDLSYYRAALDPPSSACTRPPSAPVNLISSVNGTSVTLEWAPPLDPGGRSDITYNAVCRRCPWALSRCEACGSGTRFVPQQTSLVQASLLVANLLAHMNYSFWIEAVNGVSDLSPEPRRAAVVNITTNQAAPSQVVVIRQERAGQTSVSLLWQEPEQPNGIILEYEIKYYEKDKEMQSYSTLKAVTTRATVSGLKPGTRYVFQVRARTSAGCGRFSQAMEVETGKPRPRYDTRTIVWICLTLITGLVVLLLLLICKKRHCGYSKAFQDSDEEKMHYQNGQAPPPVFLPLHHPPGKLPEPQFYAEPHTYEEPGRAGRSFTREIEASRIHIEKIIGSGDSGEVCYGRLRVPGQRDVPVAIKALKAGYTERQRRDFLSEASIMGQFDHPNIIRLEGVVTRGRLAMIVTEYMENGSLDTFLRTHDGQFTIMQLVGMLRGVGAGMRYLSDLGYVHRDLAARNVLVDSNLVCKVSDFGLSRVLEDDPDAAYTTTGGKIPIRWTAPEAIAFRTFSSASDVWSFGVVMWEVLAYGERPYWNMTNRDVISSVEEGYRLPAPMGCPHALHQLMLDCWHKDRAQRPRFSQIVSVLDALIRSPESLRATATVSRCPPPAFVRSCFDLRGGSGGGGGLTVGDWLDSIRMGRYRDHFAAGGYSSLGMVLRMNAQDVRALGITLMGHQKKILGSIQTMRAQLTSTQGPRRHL

[2] = system: solid tumors harboring mutations in BRAF, KRAS, or NRAS genes; experiment: open-label Phase Ia dose-escalation study; type: in vivo, human; settings: for Median DOR: updated
Description: For instance, a completed, open-label, Phase Ia, dose-escalation investigated several doses and schedules of belvarafenib in patients with solid tumors harboring mutations in BRAF, KRAS, or NRAS genes. Efficacy was analyzed for 67 of 72 subjects who had at least 1 post-baseline tumor assessment. […] Fifty-nine (88.06%) subjects developed an event (progression of disease or death), all of which were reported as progressive disease (PD). In addition, median progression-free survival was 11.53 weeks and the 95% confidence interval for the median was [7.12 weeks, 13.38 weeks). […] Median DOR was elevated to 30.18 weeks in 800 mg BID group and 23.99 weeks in total group including DOR of a subject which is 100.29 weeks.

[3] = system: solid tumors harboring mutations in BRAF, KRAS, or NRAS genes; experiment: open-label Phase Ib dose-expansion study; type: in vivo, human
Description: In another open-label, Phase Ib, dose-expansion study, belvarafenib was evaluated at a dose of 450 mg BID in patients with solid tumors harboring mutations in BRAF, KRAS, or NRAS genes. Efficacy was analyzed for 59 of 63 subjects who had at least 1 dose of belvarafenib after enrollment and had at least 1 post-baseline tumor assessment. BORR was 11.86% (7/59 subjects), ORR was 6.78% (4/59 subjects) with PR as confirmed best overall response (3 subjects with melanoma and a subject with CRC). […] Fifty (84.75%) of 59 subjects developed an event (progression of disease or death), all of which were reported as PD except 1 death case. In addition, median progression-free survival (PFS) was 7.83 weeks and the 95% confidence interval for the median was [7.26 weeks, 8.26 weeks]. Median duration of response (DOR) of a total response in this study was 15.66 weeks from 7 responders.

Chain of colony stimulating factor 1 receptor (CSF1R) (P07333 20-972, species assumed): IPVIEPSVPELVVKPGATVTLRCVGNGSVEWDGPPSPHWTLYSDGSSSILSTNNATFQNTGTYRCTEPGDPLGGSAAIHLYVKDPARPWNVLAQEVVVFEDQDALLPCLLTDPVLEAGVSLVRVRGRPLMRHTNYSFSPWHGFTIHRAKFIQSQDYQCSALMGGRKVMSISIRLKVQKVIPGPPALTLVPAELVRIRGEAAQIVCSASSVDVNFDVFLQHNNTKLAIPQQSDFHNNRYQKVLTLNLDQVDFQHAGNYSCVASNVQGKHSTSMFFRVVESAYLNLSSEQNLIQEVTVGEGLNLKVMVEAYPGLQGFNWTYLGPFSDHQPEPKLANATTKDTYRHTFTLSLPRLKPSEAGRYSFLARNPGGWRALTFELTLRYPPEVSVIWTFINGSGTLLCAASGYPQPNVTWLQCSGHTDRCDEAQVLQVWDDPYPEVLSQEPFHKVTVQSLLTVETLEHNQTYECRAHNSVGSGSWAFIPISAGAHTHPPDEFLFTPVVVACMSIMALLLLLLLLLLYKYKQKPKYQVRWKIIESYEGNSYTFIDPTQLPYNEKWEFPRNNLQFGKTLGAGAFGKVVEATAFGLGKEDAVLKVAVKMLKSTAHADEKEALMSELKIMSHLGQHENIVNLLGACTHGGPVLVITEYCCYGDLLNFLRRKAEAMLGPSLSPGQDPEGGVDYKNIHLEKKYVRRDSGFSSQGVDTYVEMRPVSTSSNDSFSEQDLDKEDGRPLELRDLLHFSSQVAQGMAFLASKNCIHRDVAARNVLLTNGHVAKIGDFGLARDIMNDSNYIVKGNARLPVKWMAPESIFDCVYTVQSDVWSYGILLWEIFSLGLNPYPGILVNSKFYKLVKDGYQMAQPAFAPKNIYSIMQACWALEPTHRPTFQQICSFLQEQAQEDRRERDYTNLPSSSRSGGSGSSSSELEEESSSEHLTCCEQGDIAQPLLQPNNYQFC

Compound: Cc1ccc2c(Nc3cccc(Cl)c3F)nccc2c1NC(=O)c1csc2c(N)ncnc12 [Belvarafenib, 4-amino-N-(1-((3-chloro-2-fluorophenyl)amino)-6-methylisoquinolin-5-yl)thieno[3,2-d]pyrimidine-7-carboxamide]
- inhibition at 1 µM [1]: > 90%
- inhibition at 1 µM (EPHA8): > 90%
- Median DOR ([2]; 800 mg BID group): 30.18 weeks
- Best overall response rate (BORR) ([2]; 67 evaluable subjects): 8.96%
- objective response rate (ORR) ([2]; 67 evaluable subjects): 4.48%
- subjects who developed an event (progression of disease or death) ([2]; 67 evaluable subjects): 88.06%
- BORR, subgroup re-analysis ([2]; BRAF-mutant melanoma subjects (13)): 7.69%
- median progression-free survival ([2]; in vivo): 11.53 weeks
- DOR of a subject ([2]; single subject): 100.29 weeks
- Disease control ([2]; subjects treated with 100 mg QD dose level or above): 50.57%
- Median DOR ([2]; total group): 23.99 weeks
- BORR, updated results ([2]; updated results): 10.45%
- ORR, updated results ([2]; updated results): 4.48%
- Disease control ([3]; 450 mg BID): 35.59%
- ORR ([3]; 450 mg BID): 6.78%
- median progression-free survival (PFS) ([3]; 450 mg BID): 7.83 weeks
- subjects who developed an event (progression of disease or death) ([3]; 450 mg BID): 84.75%
- Median duration of response (DOR) ([3]; 450 mg BID, 7 responders): 15.66 weeks
- BORR ([3]; 450 mg BID, 59 evaluable subjects): 11.86%
- Median DOR ([3]; 2 BRAF-mutant melanoma responders): 22.49 weeks

Source: patent US20240173329A1, “BELVARAFENIB FOR USE IN TREATMENT OF BRAIN CANCERS” (Genentech, Inc., priority 2021, published 2024)
